Data: patent US20170368082A1, “FORMULATIONS OF BRINCIDOFOVIR” (priority 2016, published 2017)
Like-named read-outs stand apart in the source and are kept apart here.

Legend:
[1] = Plasma BCV PK following single dose oral tablet administration (Table 105); assay type: in vivo; conditions: human; for AUC(0-inf) / Cmax: plasma, po
[2] = 7-day dose range-finding study, 2-hour IV infusion (Phase 2): toxicity; assay type: in vivo, Sprague-Dawley CD rats
Description: For Phase 2, Sprague-Dawley CD® rats (5/sex/group) were dosed with brincidofovir via 2-hour IV infusion with 0 [2× sodium phosphate buffer solution (400 mM, pH 8.0±0.04)], 1 or 15 mg/kg on Days 1, 4 and 7. The dose volume was 10 mL/kg/hr for all groups. At the end of the Phase 2 treatment period, all animals were euthanized and necropsied. Phase 2 satellite animals (3/sex/Group 1 and 6/sex/Group 2-3) were similarly dosed and blood samples collected on Days 1 and 7 for toxicokinetic analysis of brincidofovir and one of its metabolites, cidofovir.
For Phase 2 (DRF), the test and control articles were administered, via intravenous 2-hour IV infusion to rats on Days 1, 4, and 7.
During Phase 2, each animal received brincidofovir administrations via intravenous infusion (2-hours) on Days 1, 4 and 7. Animals were maintained on sterile saline at a rate of 0.5 mL/hour between doses. Catheters were tied off after the completion of dose administration on Day 7 (a knot was placed in the catheter and the catheter was receded under the skin) and jackets were removed.
Blood obtained via the orbital sinus (retrobulbar venous plexus) as a terminal procedure under light isoflurane anesthesia was used to analyze hematology and clinical chemistry parameters for all animals at termination of dosing. Animals were fasted overnight prior to blood collection. Animals were not allowed to recover from anesthesia after blood collection.
Blood samples (approximately 0.25 mL) were collected into tubes containing K2EDTA anticoagulant and analyzed for the following using a Siemens ADVIA 120 Hematology Analyzer: Hemoglobin concentration (HGB); Hematocrit (HCT); Erythrocyte count (RBC); Platelet count (PLT); Mean corpuscular volume (MCV); Mean corpuscular hemoglobin (MCH); Mean corpuscular hemoglobin concentration (MCHC); Red cell distribution width (RDW); Total leukocyte count (WBC); Reticulocyte count (RETIC); Differential leukocyte count (Manual differential leukocyte counts were performed for verification and absolute values were calculated if necessary); Neutrophils (ANEU); Lymphocytes (ALYM); Eosinophils (AEOS); Basophils (ABASO); Monocytes (AMONO); Large unstained cells (ALUC);
Blood samples (approximately 1 mL) were collected into tubes with no anticoagulant, allowed to clot, centrifuged to obtain serum and analyzed for the following using a Siemens ADVIA 1800 Chemistry Analyzer: Aspartate aminotransferase (AST) (Kinetic—Modified Bergmeyer); Alanine aminotransferase (ALT) (Kinetic—Modified Bergmeyer); Alkaline phosphatase (ALKP) (Kinetic—Tietz AMP Buffer); Blood urea nitrogen (BUN) (Enzymatic Roch-Ramek with Urease); Creatinine (CREAT) (Jaffe Picric Acid in Alkaline Medium); Glucose (GLU) (Glucose Hexokinase II Method); Cholesterol (CHOL) (Enzymatic esterase/oxidase Trinder Endpoint); Triglycerides (TRIG) (Fossati Three Step Enzymatic—Trinder Endpoint); Total protein (TP) (Biuret Technique); Albumin (ALB) (Bromocresol Green Method); Total bilirubin (TBILI) (Oxidation with Vandate); Sodium (NA^+) (Ion Selective Electrode); Potassium (K^+) (Ion Selective Electrode); Chloride (Cr) (Ion Selective Electrode); Calcium (Ca′) (Michaylova & Ilkova, Arsenazo III); Inorganic phosphorus (PHOS) (Phosphomolybdate—UV Method).
Complete macroscopic examinations were performed on all Phase 2 main study animals. The macroscopic examination included examination of the external surface and all orifices; the external surfaces of the brain and spinal cord; the organs and tissues of the cranial, thoracic, abdominal and pelvic cavities and neck; and the remainder of the carcass for the presence of macroscopic morphologic abnormalities. Animals were discarded after examination; no tissues were collected or preserved.

[3] = Comparison of toxicity of orally and intravenously administered brincidofovir (rat intestine); assay type: in vivo; conditions: for AUC / Cmax: rat, in vivo; for AUC: read-out: Exposure AUC; for Cmax: read-out: Exposure Cmax
Excerpt: As shown in the figures, IV administration of brincidofovir is more well-tolerated in the intestine.

[4] = 100 mg, 100 mg Oral Tablet, N = 52, geometric mean
[5] = 200 mg, 200 mg Oral Tablet, N = 15, geometric mean
[6] = 200 mg, 200 mg Oral Tablet, N = 63, geometric mean
[7] = 350 mg, 350 mg Oral Tablet, N = 70, geometric mean
[8] = Sprague-Dawley CD, IV, repeat dose 1 mg/kg
[9] = Sprague-Dawley CD, IV, repeat dose 4 mg/kg
[10] = Sprague-Dawley CD, IV, repeat dose 15 mg/kg

Structure (SMILES): CCCCCCCCCCCCCCCCOCCCOP(=O)(O)CO[C@H](CO)Cn1ccc(N)nc1=O [Brincidofovir]
- half-life ([1]; 100 mg Oral Tablet, N = 52, geometric mean): 7.62 h
- half-life ([1]; 200 mg Oral Tablet, N = 15, geometric mean): 12 h
- AUC(0-inf) [1, 4]: 1380 ng·h/mL
- Cmax [1, 4]: 258 ng/mL
- AUC(0-inf) [1, 5]: 3310 ng·h/mL
- Cmax [1, 5]: 622 ng/mL
- AUC(0-inf) [1, 6]: 3740 ng·h/mL
- Cmax [1, 6]: 802 ng/mL
- AUC(0-inf) [1, 7]: 6940 ng·h/mL
- Cmax [1, 7]: 1480 ng/mL
- Tolerability ([2]; 1 and 15 mg/kg/day, Days 1, 4 and 7): well tolerated
- Clinical signs ([2]; 1 or 15 mg/kg/day): did not result in any brincidofovir-related clinical signs
- Decrease in red cell mass vs controls (to) ([2]; end of 7-day dosing phase): −4.2%
- Change in reticulocytes vs controls ([2]; females, 15 mg/kg): −30%
- Change in urea (BUN) vs controls ([2]; females, 15 mg/kg): +29%
- Change in total calcium vs controls ([2]; females, ≧1 mg/kg): +4.9%
- Change in MCHC vs controls ([2]; males, 15 mg/kg): +2.1%
- Change in total calcium vs controls ([2]; males, 15 mg/kg): +3.8%
- Change in reticulocytes vs controls ([2]; males, 15 mg/kg, Days 1, 4, 7): −33%
- Intestinal finding ([3]; IV administration): minimal single-cell effects
- Preliminary Findings ([3]; IV, repeat dose 1 mg/kg): No GI findings
- AUC [3, 8]: 410 ng·h/mL
- Cmax [3, 8]: 298 ng/mL
- AUC [3, 9]: 2760 ng·h/mL
- Cmax [3, 9]: 1200 ng/mL
- AUC [3, 10]: 9890 ng·h/mL
- Cmax [3, 10]: 4500 ng/mL
- Intestinal finding ([3]; oral administration): significant loss of epithelium in intestinal villi
- mortality ([3]; oral, single dose 100 mg/kg): 38% mortality
- mortality ([3]; oral, single dose 300 mg/kg): 100% mortality
- AUC ([3]; oral, single dose 30 mg/kg): 5560 ng·h/mL
- Cmax ([3]; oral, single dose 30 mg/kg): 426 ng/mL
- AUC ([3]; oral, single dose 100 mg/kg): 13600 ng·h/mL
- Cmax ([3]; oral, single dose 100 mg/kg): 1090 ng/mL
- AUC ([3]; oral, single dose 300 mg/kg): 20500 ng·h/mL
- Cmax ([3]; oral, single dose 300 mg/kg): 1190 ng/mL
- AUC ([3]; oral, single dose 1000 mg/kg): 26400 ng·h/mL
- Cmax ([3]; oral, single dose 1000 mg/kg): 1380 ng/mL
